Test results: US4110626A, “Method for improving the quality of the fragrance of perfumes using aliphatic dibasic acid diesters” (Shiseido Co., Ltd., priority 1976, dated 1978)

Assays:
skin of an albino rabbit = assay: Primary irritation of the skin of an albino rabbit; type: in vivo; settings: 0.3 ml, intact and abraded area, 24 hours
Procedure: The primary irritation of the skin of an albino rabbit was determined by adhering 0.3 ml of a test agent on a lint cloth patch, applying the cloth to an intact area and an abraded area of the skin of the back of the albino rabbit, and evaluating the skin reactions at these two areas after a lapse of 24 hours. Then, an overall evaluation was made.

skin of a guinea pig = assay: Cumulative irritation on the skin of a guinea pig; type: in vivo; settings: 0.3 ml three times at 24 hour intervals, intact skin
Procedure: The cumulative irritation on the skin of a guinea pig was evaluated by coating 0.3 ml of a test agent on intact skin of the guinea pig and judging the skin reaction after a lapse of 24 hours, then coating the test agent in an amount of 0.3 ml on the same site twice, each at 24 hour intervals, and judging the reaction of the skin after a lapse of 72 hours (after coating three times).

Pseudomonas aeruginosa = assay: Microorganism assimilation; settings: for OD (turbidity): 660 nm
Procedure: 100 ml of the above liquid medium was placed in a 500 ml Sakaguchi flask, and sterilized at 120° C for 15 minutes in an autoclave in a customary manner. After cooling, the culture medium was inoculated with a prescribed amount of a suspension of the pre-cultured microorganism and cultivated at 30° C with shaking 120 times per minute.
Changes with time in the pH, turbidity, number of living cells were determined.
The turbidity was determined as follows: 2 ml of the culture broth was collected, and the precipitate was separated with a centrifugal separator. The precipitate was washed with acetone, and suspended in 2 ml of distilled water. The turbidity (OD) of the suspension at 660 nm was measured.

[1] = Stabilizing effect on octanal (APHA color); type: physicochemical; settings: 37° C, 1 month; original APHA 15; 50% controlling agent added or octanal alone
Procedure: Octanal was selected as a single perfume, and the stabilizing effect of the perfume controlling agent was determined.
Amount of Perfume Controlling Agent: 50% based on the octanal (in the case of both DIBA and DIAA)
Test Temperature and Period: 37° C, one month (checked every week)
Items Evaluated: Acid value (AV), carbonyl value (COV), APHA color
In the test, a 100 ml brown bottle boiled in water for 12 hours was used, and the head space of the bottle was purged with nitrogen gas after the octanal had been introduced into the bottle.
Specifically, the color of a solution obtained by diluting 1 ml of a standard original color liquid (octanal) with water exactly to a volume of 100 ml is taken as APHA No. 5, and the APHA color number is increased by a multiple of 5 (as 10, 15, 20 . . . ) for every 1 ml increase of the original liquid.

[2] = Fixing effect: analysis of residue on paper after standing 15 minutes; type: physicochemical
Procedure: (§1) Then, the fixing effect was evaluated by a second head space gas chromatographic (II) method (HS-GC (II)). Specifically, a perfume containing 0.7 g of a perfume controlling agent was coated on a sheet of paper having a predetermined thickness, area (11.5 × 7.5 cm), and weight (about 2.9 g). The coated paper was allowed to stand for 15 minutes in an open space in a room (6 × 4 × 2.5 m) maintained at a humidity of 50% at a ventilation rate of 1,500 m^3 /hr. The paper was then transferred into a 1,000 ml Erlenmeyer flask, and the flask was tightly sealed. After a lapse of 15 minutes, the volatilized portion was collected and analyzed by gas chromatography under the conditions shown Table A above. Furthermore, the residue on the paper was extracted with acetone, and analyzed by gas chromatography using conditions shown in Table B below.
Column: 5% FFAP (free fatty acid polyester; a trade name for a product of Nippon Chromato Co., Ltd.) on diatomaceous earth (2m)
Column Temperature: 80° C (5 minutes, isothermal) to 220° C (4° C/min.)
Injector Temperature: 260° C
Detector Temperature: 260° C
(§2) Detector: Flame Ionization Detector
(§3) Carrier Gas: He (40 ml/min.)
(§4) The composition of the model perfume used was as follows:
The values shown in Table 5 above were obtained by calculating the areas of the perfumes while the area of musk ketone measured by gas chromatography was taken as 1. (This calculating procedure was adopted because musk ketone has a high boiling point, and scarcely volatilizes at 30° C.)

[3] = Fixing effect: HS-GC (II), analysis of volatilized portion after standing 15 minutes; type: physicochemical; settings: for Analysis of Volatilized Portion after Standing 15 Minutes (HS-GC (II) Method): controlling agent 15%, model perfume 5%
Procedure: as §1, §4
Model Perfume: 5% by weight
95% Ethanol: 95% by weight
The composition of the perfume containing a perfume controlling agent was as follows:
Perfume Controlling Agent: 15% by weight
95% Ethanol: 80% by weight

[4] = Fixing effect: head space gas chromatographic (I) method (HS-GC (I)); type: physicochemical; settings: 35° C, 60 minutes
Procedure: A model perfume formulation was prepared using eight typical perfumes having different chemical structures, and the fixing effect of a perfume controlling agent was evaluated.
The fixing effect of the perfume controlling agent was determined using a head space gas chromatographic (I) method (to be abbreviated hereinafter as HS-GC (I) method). Specifically, 0.5 g of a perfume containing the perfume controlling agent was placed in an Erlenmeyer flask, and after sealing, the flask was allowed to stand at 35° C for 60 minutes.
Column: 3% polyethylene glycol having a molecular weight of about 20,000 on diatomaceous earth (2m)
Column Temperature: -40° C (5 minutes, isothermal) flushed to 80° C and then to 200° C (4° C/min.)
Injector Temperature: 250° C
Detector Temperature: 250° C
as §2, §3

[5] = Acute oral toxicity (LD50)

CC(C)COC(=O)CCCCC(=O)OCC(C)C [DIBA, diisobutyl adipate]
Primary irritation of the skin (skin of an albino rabbit): did not exhibit irritating effects
Cumulative irritation on the skin (skin of a guinea pig): did not exhibit irritating effects
pH (Pseudomonas aeruginosa; 0 days elapsed): 6.94
Number of Living Cells (Pseudomonas aeruginosa; 2 days elapsed): 2.3 × 10^7
pH (Pseudomonas aeruginosa; 2 days elapsed): 4.72
OD (turbidity) (Pseudomonas aeruginosa; 2 days elapsed): 0.152
Number of Living Cells (Pseudomonas aeruginosa; 7 days elapsed): 3 × 10^2
pH (Pseudomonas aeruginosa; 7 days elapsed): 4.42
OD (turbidity) (Pseudomonas aeruginosa; 7 days elapsed): 0.13
Number of Living Cells (Pseudomonas aeruginosa; 14 days elapsed): < 10^2
pH (Pseudomonas aeruginosa; 14 days elapsed): 4.40
OD (turbidity) (Pseudomonas aeruginosa; 14 days elapsed): 0.115
Assimilation by microorganism (Pseudomonas aeruginosa; conclusion from Table 8): assimilated very well
APHA color of octanal [1]: about 30 APHA
Analysis of Residue on Paper after Standing 15 Minutes (Area Ratio) ([2]; Citral (not present: 1.5), area of musk ketone taken as 1): 2
Analysis of Residue on Paper after Standing 15 Minutes (Area Ratio) ([2]; Limonene (not present: 0.3), area of musk ketone taken as 1): 0.6
Analysis of Residue on Paper after Standing 15 Minutes (Area Ratio) ([2]; Linalool (not present: 6.4), area of musk ketone taken as 1): 9.5
Analysis of Residue on Paper after Standing 15 Minutes (Area Ratio) ([2]; Linalyl Acetate (not present: 5.1), area of musk ketone taken as 1): 8.5
Analysis of Residue on Paper after Standing 15 Minutes (Area Ratio) ([2]; Musk Ketone (reference, taken as 1; not present: 1.0)): 1
Analysis of Residue on Paper after Standing 15 Minutes (Area Ratio) ([2]; Pinene (not present: 0.0), area of musk ketone taken as 1): 0
Analysis of Volatilized Portion after Standing 15 Minutes (HS-GC (II) Method) ([3]; Citral (not present: 3.5%)): 1.3%
Analysis of Volatilized Portion after Standing 15 Minutes (HS-GC (II) Method) ([3]; Limonene (not present: 2.6%)): 45.9%
Analysis of Volatilized Portion after Standing 15 Minutes (HS-GC (II) Method) ([3]; Linalool (not present: 45.2%)): 29.7%
Analysis of Volatilized Portion after Standing 15 Minutes (HS-GC (II) Method) ([3]; Linalyl Acetate (not present: 39.0%)): 16.4%
Analysis of Volatilized Portion after Standing 15 Minutes (HS-GC (II) Method) ([3]; Musk ketone (not present: 0.0%)): 0.0%
Analysis of Volatilized Portion after Standing 15 Minutes (HS-GC (II) Method) ([3]; Pinene (not present: 0.2%)): 2.4%
Volatility and fixing ability ([3]; conclusion from Tables 3, 4 and 5): balanced volatility and fixing ability like DEP and BB
Head Space Analysis of the Perfume after Adding 50% of DIBA ([4]; Benzyl Acetate, content 11.0% (alone 12.5%)): 12.6%
Head Space Analysis of the Perfume after Adding 50% of DIBA ([4]; Geraniol, content 16.5% (alone 0.9%)): 0.5%
Head Space Analysis of the Perfume after Adding 50% of DIBA ([4]; Lily Aldehyde, content 27.5% (alone 0.4%)): 0.2%
Head Space Analysis of the Perfume after Adding 50% of DIBA ([4]; Limonene, content 5.5% (alone 53.4%)): 57.5%
Head Space Analysis of the Perfume after Adding 50% of DIBA ([4]; Linalool, content 11.0% (alone 15.0%)): 12.8%
Head Space Analysis of the Perfume after Adding 50% of DIBA ([4]; Linalyl Acetate, content 11.0% (alone 4.1%)): 0.1%
Head Space Analysis of the Perfume after Adding 50% of DIBA ([4]; Nonanal, content 1.1% (alone […])): 2.1%
Head Space Analysis of the Perfume after Adding 50% of DIBA ([4]; Rose P, content 16.5% (alone 5.1%)): 4.4%
LD50 ([5]; acute oral toxicity): 12.3 mL/kg
Acute toxicity compared with conventional perfume controlling agents ([5]; conclusion from Table 1): equal to, or lower than, other conventional perfume controlling agents
